The text below walks through data of patent publication EP4631503A1, “AVL-292 OR MK-5108 FOR USE IN THE TREATMENT OF PDAC” (priority 2024, dated 2025).

One data set concerns PDAC. As to conditions: phase II clinical trials; cited from earlier work.
Another data set concerns cleaved PRAP. The data set can be described thus: Western blot, apoptotic marker. It counts as cell-based. The following applies: apoptotic gene. The procedure: (§1) Pane1 and HPAF II cells were seeded into a 6-well plate at 200,000 cells per well concentration. After siRNA transfection and drug treatment, whole cell lysate was prepared with CelLytic M (C2978, Sigma-Aldrich) buffer and samples were prepared with 2x Laemmli Sample Buffer (1610737, Biorad) at 20µg protein lysate. SDS PAGE was performed Mini-PROTEAN® TGX™ Precast Gels (Bio-Rad) and transferred using Trans-Blot® Turbo™ Transfer System (Bio-Rad). CDCA5 (ab192237, abcam), KIF18A (ab72417, abcam), KIF23 (HPA068831, Sigma Aldrich), TPX2 (ab252944, abeam), Aurora A (ab108353, abeam), Aurora B (ab287960, abcam), PARP (9542S, Cell signaling), […] (ab2324, abcam), β-actin (ab8227, abeam), GAPDH (ab8245, abeam), and α-tubulin (ab7291, abcam) were blotted as a primary antibody for overnight. Secondary antibodies, Goat Anti-Rabbit HRP (ab205718) and goat anti-mouse IgG-HRP (sc2005, Santa Cruz Biotechnology, Inc.) were blotted for one hour. The protein band was detected with ImageQuantTMLAS 500 (29-0050-63, GE).
Background: In western blotting, separated proteins are transferred to a membrane and probed.

Data set [1] is described as follows: Western blot, apoptotic marker. It counts as cell-based. As to conditions: apoptotic gene. As to the method:
as §1

Another data set deals with HPAF II. The data set can be described thus: MTT cell viability assay. It counts as cell-based. As to conditions: Homo sapiens, 48 h. As to the method:
Pane1 and HPAF II cells were cultured with DMEM (D0822, Sigma-Aldrich) supplemented with 10% fetal bovine serum (FBS, F7524, Sigma-Aldrich), 1% P/S (P4333, Sigma-Aldrich). […] Drugs were treated to cells for two days at 10µM. Cell viability was measured by MTT assay (M6494, ThermoFisher) by following the manufacturer's instructions. O.D values were detected with a microplate reader (Hidex Sense Beta Plus).
Background: Formazan colour is commonly taken as a measure of viable cells.

A further data set can be described thus: MTT cell viability assay. It counts as cell-based. As to conditions: Homo sapiens, PANC-1, 48 h, Pane1 cells, two days. As to the method: Pane1 and HPAF II cells were cultured with DMEM (D0822, Sigma-Aldrich) supplemented with 10% fetal bovine serum (FBS, F7524, Sigma-Aldrich), 1% P/S (P4333, Sigma-Aldrich). For siRNA treatment, 200,000 cells for a 6well plate and 20,000 cells per well for a 96well plate were seeded. siRNAs were purchased in Origene, CDCA5 (SR314367, Origene), KIF18A (SR313129, Origene), KIF23 (SR306300, Origene), TPX2 (SR307905, Origene), and cells were transfected by Lipofectamine® RNAiMAX (13778-075, Invitrogen) for two days. Small molecules which repositioned were purchased by AVL-292 (HY-18012, MCE), BCI-50 (HY-17553, MCE), MK-5108 (HY-13252, MCE), AZD1208 (HY-15604, MCE), SKA-31 (HY111655, MCE), Y-26763 (HY-101069, MCE), Estropipate (HY-B1361, MCE), Tiquizium (sc-474386, Santa Cruz), Acyclovir (HY-17422, MCE), and Cyproterone acetate (HY-13604, MCE) and dissolved into DMSO. Drugs were treated to cells for two days at 10µM. Cell viability was measured by MTT assay (M6494, ThermoFisher) by following the manufacturer's instructions. O.D values were detected with a microplate reader (Hidex Sense Beta Plus).

The subject of the next data set is CDCA5. The data set can be described thus: Western blot, protein expression level. It counts as cell-based. The following applies: cells, 10 µM, in words. The procedure:
as §1

For the next data set, the system named is AURKA. The data set can be described thus: Western blot, protein expression level. It counts as cell-based. As to conditions: cells, 10 µM, in words. As to the method:
as §1

The subject of a further data set is TPX2. The data set can be described thus: Western blot, protein expression level. It counts as cell-based. The following applies: cells, 10 µM, in words. As to the method:
as §1

In another data set the test system is KIF23. In words: Western blot, protein expression level. The following applies: cells, 10 µM, in words. It counts as cell-based. As to the method: as §1
The test system of the next data set is AURKB. In words: Western blot, protein expression level. It counts as cell-based. As to conditions: cells, 10 µM, in words. The procedure: as §1
A further data set has as its system KIF18A. The data set can be described thus: Western blot, protein expression level. It counts as cell-based. As to conditions: Pane1 cells, 10 µM, in words. The procedure:
as §1

For data set [2] the following is noted: taken orally, phase I trial; cited from earlier work.

Where two headings read alike, the source gives them in different places.

For the compound `CN(C)C(=N)N=C(N)N` [Metformin], in the data set on PDAC, the “extended survival, average” value is 0.8 months.
Take `C=CC(=O)Nc1cccc(Nc2nc(Nc3ccc(OCCOC)cc3)ncc2F)c1` [AVL-292]: the “protein expression level of cleaved PRAP” value in the data set on cleaved PRAP is listed as “increased”. Besides, the “protein expression level of Cas9” value in [1] is “increased”. The viability at 10 µM with HPAF II (HPAF-II) amounted to 71.6%; in “MTT cell viability assay”, 60.7%.
`O=C(O)[C@]1(Cc2cccc(Nc3nccs3)n2)CC[C@@H](Oc2cccc(Cl)c2F)CC1` [MK-5108]: in the data set on cleaved PRAP, the “protein expression level of cleaved PRAP” value is given as “increased”. The “protein expression level of Cas9” value in [1] is “increased”. Further, the viability at 10 µM was found to be 69.5% in the data set with HPAF II (HPAF II cells, 10µM, two days, read-out: viability) and 45.8% in “MTT cell viability assay”. Also, the CDCA5 expression change entry in the data set on CDCA5 is “over-expressed”. Moreover, in the data set on AURKA, the AURKA expression change entry was “over-expressed”. For the same compound, the TPX2 expression change entry in the data set with TPX2 is “over-expressed”. For the same compound, in the data set on KIF23, the KIF23 expression change result was “over-expressed”. For the same compound, the AURKB expression change result with AURKB is recorded as “no obvious effect”. In the data set with KIF18A, the KIF18A expression change result is “over-expressed”. The tolerability in patients entry in data set [2] is reported as “well tolerated”.

What is called viability is a per cent measure of how many cells are alive, often set against a control.
